{"source": "patent US9066949B2", "about": "“Compositions and methods for the treatment of catatonia” (priority 2011, dated 2015)", "key": {"[1]": {"tested_on": "clinical effects of ketamine, an NMDA receptor antagonist", "details": "in vivo; cited from earlier work"}, "[2]": {"details": "on average, subjects with schizophrenic disorders; cited from earlier work"}, "catatonic features": {"tested_on": "catatonic features", "test": "Bush-Francis Catatonia Rating Scale (BFCRS) assessment of patients before and after treatment", "format": "in vivo, human", "description": "This assessment tool, in conjunction with clinical observation, can be used to identify the severity of catatonia and track improvements with medication adjustments. Studies discussed herein focused on subjects in both secure and nonsecure residential settings."}}, "data": [{"smiles": "Cc1nc2n(c(=O)c1CCN1CCC(c3noc4cc(F)ccc34)CC1)CCCC2", "note": "[risperidone]", "values": [{"measurement": "effect on the clinical effects of ketamine", "setting": "[1]", "result": "do not impact the effects of ketamine"}]}, {"smiles": "O=C(CCCN1CCC(O)(c2ccc(Cl)cc2)CC1)c1ccc(F)cc1", "note": "[haloperidol]", "values": [{"measurement": "effect on the clinical effects of ketamine", "setting": "[1]", "result": "do not impact the effects of ketamine"}]}, {"smiles": "CN1CCN(C2=Nc3cc(Cl)ccc3Nc3ccccc32)CC1", "note": "[clozapine, 8-chloro-11-(4-methylpiperazin-1-yl)-5H-dibenzo[b,e][1,4]diazepine]", "values": [{"measurement": "effect on the clinical effects of ketamine", "setting": "[1]", "result": "reverse the clinical effects of ketamine"}, {"measurement": "blood levels needed to achieve greater clinical efficacy", "setting": "[2]", "result": "≥ 400", "unit": "ng/dL"}]}, {"smiles": "Nc1nnc(-c2cccc(Cl)c2Cl)c(N)n1", "note": "[lamotrigine]", "values": [{"measurement": "effect on the clinical effects of ketamine", "setting": "[1]", "result": "reverse the clinical effects of ketamine"}, {"measurement": "treatment response", "setting": "catatonic features; 10 out of 14 schizophrenic patients with catatonic features, non-secure settings, antipsychotic, lamotrigine, in some cases a benzodiazepine", "result": "marked treatment response"}, {"measurement": "effect of lamotrigine alone on catatonic features", "setting": "catatonic features; administration of lamotrigine alone", "result": "reduces catatonic features"}, {"measurement": "effect on catatonic features at lowest dose", "setting": "catatonic features; as little as 25 mg per day", "result": "meaningful reduction in catatonic features"}, {"measurement": "effect on catatonic features as the amount of lamotrigine was increased", "setting": "catatonic features; in some instances", "result": "complete remission of catatonic features"}, {"measurement": "subjects who responded", "setting": "catatonic features; of 20 confirmed cases of catatonia in secure residential settings, clozapine monotherapy with subsequent augmentation with lamotrigine", "result": 11}, {"measurement": "BFCRS score after treatment", "setting": "catatonic features; one patient, reduced from 14, olanzapine plan later augmented with lamotrigine", "result": 0}, {"measurement": "follow up BFCRS score", "setting": "catatonic features; one subject, non-secure setting, original BFCRS score 31, poor responder to clozapine and lorazepam, after augmentation with lamotrigine", "result": 0}, {"measurement": "BFCRS score after treatment", "setting": "catatonic features; one subject, secure residential setting, dropped from 17, 3 weeks after starting the combination therapy", "result": 11}, {"measurement": "response at full dosage", "setting": "catatonic features; titrated to a full dosage of 200 mg twice per day, paired with an antipsychotic", "result": "maximal responses"}]}, {"smiles": "Cc1cc2c(s1)Nc1ccccc1N=C2N1CCN(C)CC1", "note": "[olanzapine, 2-methyl-4-(4-methyl-1-piperazinyl)-10H-thieno[2,3-b][1,5]benzodiazepine]", "values": [{"measurement": "effect on the clinical effects of ketamine", "setting": "[1]", "result": "reverse the clinical effects of ketamine"}]}]}
